Common to all, as to experiment: cell-based
The target of one assay is hNav1.7 (Homo sapiens, UniProt Q15858). Format: cell-based. The settings on record: IonWorks Quattro, hNav1.7, read-out: IWQ Use Nav1.7. For orientation: The patch-clamp technique gives a direct electrical read-out from membranes.
In a further assay the target is hNav1.3 (Homo sapiens, UniProt Q9NY46). The settings on record: IonWorks Quattro, hNav1.3, read-out: IWQ Use Nav1.3.
The next assay deals with hNav1.5 (Homo sapiens, UniProt Q14524). Particulars: IonWorks Quattro, hNav1.5, read-out: IWQ Use Nav1.5.
hNav1.5, sequence (Q14524 whole entry, looked up): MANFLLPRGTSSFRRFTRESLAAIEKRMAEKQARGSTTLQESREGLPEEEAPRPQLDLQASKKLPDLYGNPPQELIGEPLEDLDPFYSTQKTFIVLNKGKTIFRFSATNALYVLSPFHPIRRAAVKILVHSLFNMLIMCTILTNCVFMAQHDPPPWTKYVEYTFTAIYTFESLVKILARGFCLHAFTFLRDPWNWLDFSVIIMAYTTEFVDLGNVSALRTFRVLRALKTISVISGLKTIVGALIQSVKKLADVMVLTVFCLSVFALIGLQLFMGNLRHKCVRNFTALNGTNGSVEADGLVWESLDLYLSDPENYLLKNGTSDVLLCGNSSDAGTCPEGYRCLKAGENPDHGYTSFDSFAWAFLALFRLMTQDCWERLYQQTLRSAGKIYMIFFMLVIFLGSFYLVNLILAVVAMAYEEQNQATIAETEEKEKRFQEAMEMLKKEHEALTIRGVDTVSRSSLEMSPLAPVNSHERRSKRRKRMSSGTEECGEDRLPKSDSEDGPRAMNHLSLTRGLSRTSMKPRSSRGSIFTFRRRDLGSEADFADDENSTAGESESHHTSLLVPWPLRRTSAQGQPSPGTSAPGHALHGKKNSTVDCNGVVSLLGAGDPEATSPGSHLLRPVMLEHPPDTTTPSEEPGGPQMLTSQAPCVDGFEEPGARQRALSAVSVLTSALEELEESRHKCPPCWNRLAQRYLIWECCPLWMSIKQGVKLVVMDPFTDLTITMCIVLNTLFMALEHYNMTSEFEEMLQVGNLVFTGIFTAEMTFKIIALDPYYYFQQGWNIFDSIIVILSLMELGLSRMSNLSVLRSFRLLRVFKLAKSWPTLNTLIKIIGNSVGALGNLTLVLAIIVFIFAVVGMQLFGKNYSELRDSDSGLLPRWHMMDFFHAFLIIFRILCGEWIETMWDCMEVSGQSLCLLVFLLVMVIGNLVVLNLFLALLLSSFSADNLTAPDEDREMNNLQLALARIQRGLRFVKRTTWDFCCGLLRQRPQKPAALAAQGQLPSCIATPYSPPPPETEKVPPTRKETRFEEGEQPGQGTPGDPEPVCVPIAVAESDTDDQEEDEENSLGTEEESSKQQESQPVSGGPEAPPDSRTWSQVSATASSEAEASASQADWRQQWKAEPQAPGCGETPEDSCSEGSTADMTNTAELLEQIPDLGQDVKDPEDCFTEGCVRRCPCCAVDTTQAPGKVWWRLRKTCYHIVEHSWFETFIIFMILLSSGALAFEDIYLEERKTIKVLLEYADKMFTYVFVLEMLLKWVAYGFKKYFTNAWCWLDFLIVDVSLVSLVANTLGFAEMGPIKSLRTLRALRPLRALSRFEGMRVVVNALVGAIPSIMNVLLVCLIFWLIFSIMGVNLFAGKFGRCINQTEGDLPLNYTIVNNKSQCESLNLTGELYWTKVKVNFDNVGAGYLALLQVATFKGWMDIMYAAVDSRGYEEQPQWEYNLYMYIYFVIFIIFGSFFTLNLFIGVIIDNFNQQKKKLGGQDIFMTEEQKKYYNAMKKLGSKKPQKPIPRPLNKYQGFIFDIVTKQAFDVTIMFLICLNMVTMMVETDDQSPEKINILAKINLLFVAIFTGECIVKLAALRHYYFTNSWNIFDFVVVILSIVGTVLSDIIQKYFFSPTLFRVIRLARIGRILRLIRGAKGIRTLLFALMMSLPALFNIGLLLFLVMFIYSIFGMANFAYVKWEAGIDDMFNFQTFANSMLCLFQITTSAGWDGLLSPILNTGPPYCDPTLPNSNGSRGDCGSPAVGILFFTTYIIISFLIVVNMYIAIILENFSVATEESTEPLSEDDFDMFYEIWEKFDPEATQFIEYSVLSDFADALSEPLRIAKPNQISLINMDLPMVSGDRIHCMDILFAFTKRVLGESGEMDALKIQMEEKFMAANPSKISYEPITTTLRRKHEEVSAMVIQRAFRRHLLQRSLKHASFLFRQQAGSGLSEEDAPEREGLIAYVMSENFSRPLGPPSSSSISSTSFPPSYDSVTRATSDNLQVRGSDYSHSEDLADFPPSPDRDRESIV

Read-outs that look alike come from different tables or passages of the source. Positions of bridges follow the written chain, without caps; N, C: chain ends. Non-standard residues stand in square brackets, D forms with d. Residues, ends and D or L forms follow the SMILES beside them. Groups on a side chain read outwards from the residue. Phe(4-tBu) = CC(C)(C)c1ccc(C[C@H](N)C(=O)O)cc1; 1Nal = N[C@@H](Cc1cccc2ccccc12)C(=O)O; Pra = C#CC[C@H](N)C(=O)O

hNav1.7, sequence (Q15858 whole entry, looked up): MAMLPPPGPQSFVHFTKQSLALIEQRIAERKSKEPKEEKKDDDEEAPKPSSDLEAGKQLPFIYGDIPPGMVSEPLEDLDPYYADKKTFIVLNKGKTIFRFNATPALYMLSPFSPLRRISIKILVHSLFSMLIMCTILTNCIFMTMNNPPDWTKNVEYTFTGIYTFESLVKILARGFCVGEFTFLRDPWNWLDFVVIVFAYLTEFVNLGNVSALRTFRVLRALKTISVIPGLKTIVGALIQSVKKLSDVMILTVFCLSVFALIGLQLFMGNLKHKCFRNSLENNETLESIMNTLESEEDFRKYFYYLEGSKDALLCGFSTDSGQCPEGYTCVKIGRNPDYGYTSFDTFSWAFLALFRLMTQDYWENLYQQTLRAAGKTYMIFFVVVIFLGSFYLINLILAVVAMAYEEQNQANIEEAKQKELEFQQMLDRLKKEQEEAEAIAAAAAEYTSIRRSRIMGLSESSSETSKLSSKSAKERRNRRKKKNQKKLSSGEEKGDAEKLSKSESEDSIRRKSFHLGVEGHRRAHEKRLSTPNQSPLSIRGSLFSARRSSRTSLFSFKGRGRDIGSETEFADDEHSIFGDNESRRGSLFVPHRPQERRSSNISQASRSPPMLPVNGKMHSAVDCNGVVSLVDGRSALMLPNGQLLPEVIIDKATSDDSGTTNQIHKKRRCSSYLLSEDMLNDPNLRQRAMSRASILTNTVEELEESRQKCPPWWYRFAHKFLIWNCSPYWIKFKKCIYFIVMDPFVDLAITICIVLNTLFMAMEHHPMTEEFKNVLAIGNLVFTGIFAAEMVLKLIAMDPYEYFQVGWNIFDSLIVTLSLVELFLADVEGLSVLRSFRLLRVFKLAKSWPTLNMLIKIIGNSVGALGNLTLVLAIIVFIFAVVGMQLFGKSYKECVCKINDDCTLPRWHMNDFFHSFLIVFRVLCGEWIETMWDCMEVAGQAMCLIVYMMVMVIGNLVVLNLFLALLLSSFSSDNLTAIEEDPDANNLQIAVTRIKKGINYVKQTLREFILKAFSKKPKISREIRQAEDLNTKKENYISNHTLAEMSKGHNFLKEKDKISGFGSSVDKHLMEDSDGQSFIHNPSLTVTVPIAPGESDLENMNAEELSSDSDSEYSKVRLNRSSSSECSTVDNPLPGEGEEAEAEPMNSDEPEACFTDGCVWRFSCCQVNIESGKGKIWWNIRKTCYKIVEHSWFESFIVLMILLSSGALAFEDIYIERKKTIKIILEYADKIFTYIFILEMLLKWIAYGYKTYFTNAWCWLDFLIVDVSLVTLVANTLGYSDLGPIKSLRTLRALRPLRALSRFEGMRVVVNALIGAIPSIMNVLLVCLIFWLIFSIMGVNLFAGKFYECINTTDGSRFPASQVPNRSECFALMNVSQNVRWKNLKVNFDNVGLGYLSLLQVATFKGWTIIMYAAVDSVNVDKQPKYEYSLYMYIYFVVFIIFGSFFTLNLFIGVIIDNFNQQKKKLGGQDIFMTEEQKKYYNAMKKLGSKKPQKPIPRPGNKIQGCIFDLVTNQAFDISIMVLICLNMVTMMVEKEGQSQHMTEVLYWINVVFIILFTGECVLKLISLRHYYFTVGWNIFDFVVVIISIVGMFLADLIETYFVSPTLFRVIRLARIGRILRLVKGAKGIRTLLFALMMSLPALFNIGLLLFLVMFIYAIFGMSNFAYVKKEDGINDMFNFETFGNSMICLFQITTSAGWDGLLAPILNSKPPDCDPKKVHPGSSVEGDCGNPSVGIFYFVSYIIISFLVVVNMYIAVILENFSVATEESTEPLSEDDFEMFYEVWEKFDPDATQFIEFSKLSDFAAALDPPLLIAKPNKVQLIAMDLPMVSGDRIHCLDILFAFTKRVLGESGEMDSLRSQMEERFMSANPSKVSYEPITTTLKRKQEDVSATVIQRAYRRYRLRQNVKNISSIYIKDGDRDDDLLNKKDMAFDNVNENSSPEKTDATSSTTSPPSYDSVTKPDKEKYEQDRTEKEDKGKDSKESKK

Regarding `CC[C@H](C)[C@@H]1NC(=O)[C@@H]2CSSC[C@@H]3NC(=O)[C@H](C(C)C)NC(=O)[C@H](CC(C)C)NC(=O)[C@H](CC(N)=O)NC(=O)[C@@H]4CCCN4C(=O)[C@H](CCCNC(=N)N)NC(=O)[C@H](CSSC[C@H](NC(=O)[C@@H](N)CC(=O)O)C(=O)N[C@@H](CC(C)C)C(=O)NCC(=O)N[C@@H](C)C(=O)N[C@@H](CCSC)C(=O)N[C@@H](CCCNC(=N)N)C(=O)N[C@@H](CCCCN)C(=O)N2)NC(=O)[C@H](CSSC[C@@H](C(=O)N[C@@H](CCCCN)C(=O)N[C@@H](Cc2ccc(O)cc2)C(=O)N[C@H](C(=O)N[C@@H](Cc2ccccc2)C(N)=O)C(C)C)NC(=O)[C@H](Cc2c[nH]c4ccccc24)NC(=O)[C@H](CC(N)=O)NC(=O)[C@H](Cc2c[nH]cn2)NC(=O)[C@H]([C@@H](C)O)NC(=O)[C@H](CCCNC(=N)N)NC(=O)[C@H](CO)NC3=O)NC(=O)[C@H](CCCCN)NC(=O)[C@H](CC(=O)O)NC(=O)[C@H](CC(N)=O)NC(=O)[C@H](CC(=O)O)NC(=O)[C@@H]2CCCN2C1=O` [compound 767] (H-DCLGAMRKCIPDNDKCCRPNLVCSRTHNWCKYVF-NH2; disulfide 2-17, 9-23, 16-30), the results for the IC50 on hNav1.7 (use-dependent block), at hNav1.3 (use-dependent block) and on hNav1.5 (use-dependent block) were 1700 nM, 3200 nM and above 50000 nM, respectively.

As to `CC[C@H](C)[C@@H]1NC(=O)[C@@H]2CSSC[C@@H]3NC(=O)[C@H](C(C)C)NC(=O)[C@H](CC(C)C)NC(=O)[C@H](CC(N)=O)NC(=O)[C@@H]4CCCN4C(=O)[C@H](CCCNC(=N)N)NC(=O)[C@H](CSSC[C@H](NC(=O)[C@@H](N)CC(=O)O)C(=O)N[C@@H](CC(C)C)C(=O)NCC(=O)N[C@@H](Cc4ccc(C(C)(C)C)cc4)C(=O)N[C@@H](Cc4ccccc4)C(=O)N[C@@H](CCCNC(=N)N)C(=O)N[C@@H](CCCCN)C(=O)N2)NC(=O)[C@H](CSSC[C@@H](C(=O)N[C@@H](CCCCN)C(=O)N[C@@H](Cc2ccc(O)cc2)C(=O)N[C@H](C(=O)N[C@@H](Cc2ccccc2)C(N)=O)C(C)C)NC(=O)[C@H](Cc2c[nH]c4ccccc24)NC(=O)[C@H](CCCCN)NC(=O)[C@H](Cc2c[nH]cn2)NC(=O)[C@H]([C@@H](C)O)NC(=O)[C@H](CCCNC(=N)N)NC(=O)[C@H](CO)NC3=O)NC(=O)[C@H](CCCCN)NC(=O)[C@H](CC(=O)O)NC(=O)[C@H](CC(N)=O)NC(=O)[C@H](CC(=O)O)NC(=O)[C@@H]2CCCN2C1=O` [compound 626] (H-DCLG[Phe(4-tBu)]FRKCIPDNDKCCRPNLVCSRTHKWCKYVF-NH2; disulfide 2-17, 9-23, 16-30), the IC50 on hNav1.7 (use-dependent protocol) came out at 52 nM; at hNav1.3 (use-dependent protocol), 21 nM; on hNav1.5 (use-dependent protocol), 4700 nM.

In the case of `C#CC[C@H](NC(C)=O)C(=O)NCCCC[C@@H]1NC(=O)[C@H](CC(=O)O)NC(=O)[C@@H]2CCCN2C(=O)[C@H]([C@@H](C)CC)NC(=O)[C@@H]2CSSC[C@@H]3NC(=O)[C@H](C(C)C)NC(=O)[C@H](CC(C)C)NC(=O)[C@H](CC(N)=O)NC(=O)[C@@H]4CCCN4C(=O)[C@H](CCCNC(=N)N)NC(=O)[C@H](CSSC[C@H](NC(=O)[C@@H](N)CC(=O)O)C(=O)N[C@@H](CC(C)C)C(=O)NCC(=O)N[C@@H](C)C(=O)N[C@@H](Cc4ccccc4)C(=O)N[C@@H](CCCNC(=N)N)C(=O)N[C@@H](CCCCN)C(=O)N2)NC(=O)[C@H](CSSC[C@@H](C(=O)N[C@@H](CCCCN)C(=O)N[C@@H](Cc2ccc(O)cc2)C(=O)N[C@H](C(=O)N[C@@H](Cc2ccccc2)C(N)=O)C(C)C)NC(=O)[C@H](Cc2c[nH]c4ccccc24)NC(=O)[C@H](CCCCN)NC(=O)[C@H](Cc2c[nH]cn2)NC(=O)[C@H]([C@@H](C)O)NC(=O)[C@H](CCCNC(=N)N)NC(=O)[C@H](CO)NC3=O)NC(=O)[C@H](CCCCN)NC(=O)[C@H](CC(=O)O)NC1=O` [compound 794] (H-DCLGAFRKCIPDK([Pra-Ac])DKCCRPNLVCSRTHKWCKYVF-NH2; disulfide 2-17, 9-23, 16-30), the IC50 at hNav1.7 (use-dependent block) was found to be 890 nM; on hNav1.3 (use-dependent block), 700 nM; at hNav1.5 (use-dependent block), 37800 nM.

With `CC[C@H](C)[C@@H]1NC(=O)[C@@H]2CSSC[C@@H]3NC(=O)[C@H](C(C)C)NC(=O)[C@H](CC(C)C)NC(=O)[C@H](CC(N)=O)NC(=O)[C@@H]4CCCN4C(=O)[C@H](CCCNC(=N)N)NC(=O)[C@H](CSSC[C@H](NC(=O)[C@@H](N)CC(=O)O)C(=O)N[C@@H](CC(C)C)C(=O)NCC(=O)N[C@@H](Cc4ccccc4)C(=O)N[C@@H](CCSC)C(=O)N[C@@H](CCCNC(=N)N)C(=O)N[C@@H](CCCCN)C(=O)N2)NC(=O)[C@H](CSSC[C@@H](C(=O)N[C@@H](CCCCN)C(=O)N[C@@H](CCCCN)C(=O)N[C@H](C(=O)N[C@@H](Cc2cccc4ccccc24)C(=O)N[C@@H](Cc2c[nH]c4ccccc24)C(N)=O)C(C)C)NC(=O)[C@H](Cc2c[nH]c4ccccc24)NC(=O)[C@H](CCCCN)NC(=O)[C@H](Cc2c[nH]cn2)NC(=O)[C@H]([C@@H](C)O)NC(=O)[C@H](CCCNC(=N)N)NC(=O)[C@H](CO)NC3=O)NC(=O)[C@H](CCCCN)NC(=O)[C@H](CC(=O)O)NC(=O)[C@H](CC(N)=O)NC(=O)[C@H](CC(=O)O)NC(=O)[C@@H]2CCCN2C1=O` [compound 99] (H-DCLGFMRKCIPDNDKCCRPNLVCSRTHKWCKKV[1Nal]W-NH2; disulfide 2-17, 9-23, 16-30), the IC50 at hNav1.7 (use-dependent block) worked out at 110 nM; at hNav1.3 (use-dependent block) it was 160 nM; on hNav1.5 (use-dependent block), 9140 nM.

In the case of `CC[C@H](C)[C@@H]1NC(=O)[C@@H]2CSSC[C@@H]3NC(=O)[C@H](C(C)C)NC(=O)[C@H](CC(C)C)NC(=O)[C@H](CC(N)=O)NC(=O)[C@@H]4CCCN4C(=O)[C@H](CCCNC(=N)N)NC(=O)[C@H](CSSC[C@H](NC(=O)[C@@H](N)CC(=O)O)C(=O)N[C@@H](CC(C)C)C(=O)NCC(=O)N[C@@H](C)C(=O)N[C@@H](CCSC)C(=O)N[C@@H](CCCNC(=N)N)C(=O)N[C@@H](CCCCN)C(=O)N2)NC(=O)[C@H](CSSC[C@@H](C(=O)N[C@@H](CCCCN)C(=O)N[C@@H](Cc2ccc(O)cc2)C(=O)N[C@H](C(=O)N[C@@H](Cc2ccccc2)C(N)=O)C(C)C)NC(=O)[C@H](Cc2c[nH]c4ccccc24)NC(=O)[C@H](Cc2c[nH]cn2)NC(=O)[C@H](Cc2c[nH]cn2)NC(=O)[C@H]([C@@H](C)O)NC(=O)[C@H](CCCNC(=N)N)NC(=O)[C@H](CO)NC3=O)NC(=O)[C@H](CCCCN)NC(=O)[C@H](CC(=O)O)NC(=O)[C@H](CC(N)=O)NC(=O)[C@H](CC(=O)O)NC(=O)[C@@H]2CCCN2C1=O` [compound 737] (H-DCLGAMRKCIPDNDKCCRPNLVCSRTHHWCKYVF-NH2; disulfide 2-17, 9-23, 16-30), the values for the IC50 on hNav1.7 (use-dependent block), at hNav1.3 (use-dependent block) and at hNav1.5 (use-dependent block) were 400 nM, 1600 nM and 19200 nM, respectively.
